Publication PMC7497692 (Investigational New Drugs, 2020)
Where two headings read alike, the source gives them in different places.

What was measured:
[1] = Unbound fraction of tepotinib in plasma, ex vivo equilibrium dialysis (part A); assay type: in vitro ADME, human healthy male volunteers; settings: male, human, 498 mg
Protocol: (§1) Participants were hospitalized from day 1 to day 16 of the study, and further assessed on days 19, 22, and 25 (trial end). […] Pre-dose feces and urine samples were collected on day 1 and day 2, respectively. Urine was collected at 4- to 12-h intervals on day 1 and every 24 h thereafter up to day 16. Feces were collected every 24 h up to day 16. Provision was made to collect further samples up to day 39 if >1% of the administered dose was detectable in the total (urine and feces) excreta per day on two consecutive measurements.
Plasma (300 μL) was dialyzed against 100 mM sodium phosphate buffer (pH 7.4) in an orbital shaker at 37 °C for 18 h. The deuterated internal standard [^2H]-MSC2156119A and 100 mM sodium phosphate buffer (pH 7.4) were added to 5 μL of the dialyzed samples and centrifuged. Supernatant (30 μL) was diluted with acetonitrile/water (50 + 50, v/v) and centrifuged, and 5–20 μL aliquots were injected onto an XBridge C18 column (2.1 × 20 mm; 5 μm; Waters, Milford, Massachusetts, USA). Separation was carried out using a mobile phase gradient (eluent A: 5 mM ammonium bicarbonate in water; eluent B: 5 mM ammonium bicarbonate in methanol) with a flow rate of 1.2 mL/min. Mass spectrometric detection of tepotinib and its internal standard was performed as described above. The LLOQ was 0.015 ng/mL in plasma dialysates and 1.00 ng/mL in plasma. Calibration standards between 0.015 and 30.0 ng/mL (plasma dialysates), and between 1.00 ng/mL and 1000 ng/mL (plasma) were calculated by weighted (1/x^2) quadratic regression analysis, respectively.

[2] = Safety assessment (TEAEs, NCI-CTCAE v4.0); assay type: in vivo, human healthy male volunteers
Protocol: Treatment-emergent adverse events (TEAEs), changes in laboratory tests, ECG, vital signs, and physical examinations were assessed and graded using the National Cancer Institute Common Terminology Criteria for Adverse Events (NCI-CTCAE) version 4.0. All safety endpoints across both parts of the study were analyzed descriptively.

[3] = Oral PK of tepotinib and total radioactivity in plasma and blood (part A); assay type: in vivo, human healthy male volunteers; settings: min–max, n=6
Protocol: as §1
In brief, the isotopically labeled internal standard [^2H]-MSC2156119A was added to 20 μL K2-ethylenediaminetetraacetic acid (EDTA) plasma. […] Samples were centrifuged and 10 μL aliquots of the supernatant were injected onto an Acquity Charged Surface Hybrid™ (CSH) C18 column (2.1 × 50 mm; […]; Waters, Milford, Massachusetts, USA). Separation was carried out using a mobile phase gradient (eluent A: water/formic acid [100 + 1, v/v]; eluent B: acetonitrile/formic acid [100 + 1, v/v]) with a flow rate of 0.6 mL/min. […] The lower limit of quantification (LLOQ) was 5.00 ng/mL, and the calibration standard responses were linear over the range between 5.00 and 2500 ng/mL using a weighted (1/x^2) linear regression.
Total radioactivity in blood, plasma, urine, and feces samples, and quick counts in urine and feces samples were determined at the bioanalytical laboratory of PRA (Assen, The Netherlands) using liquid scintillation counting (LSC). Scintillation cocktail Ultima Gold™ (5 mL; Perkin Elmar, Waltham, Massachusetts, USA) was directly spiked into 250 μL plasma and 1000 μL urine samples, respectively, whereas 300 μL aliquots of blood samples were solubilized and decolorized before adding 18 mL of the scintillation cocktail prior to LSC. Feces samples were (quantitatively) homogenized with one or two weight equivalents of water, and an accurately weighted aliquot of approximately 500 mg of the homogenate was dried at 50 °C for at least 3 h. […]
The maximum plasma concentration (Cmax) and time to reach maximum concentration (tmax) were derived directly from the plasma concentration–time data. […] The area under the plasma concentration–time curve from 0 to t (last measurable concentration; AUC0–t) was calculated using a mixed log–linear trapezoidal method. […] Amounts excreted in urine, feces, and total (urine + feces) were calculated as the sum of amounts (concentration multiplied by volume) for each collection from time 0 to time t. […] Total body clearance (CL) and apparent body clearance (CL/f) were determined by dose/AUC0–∞, and total volume of distribution (Vz) and apparent volume of distribution (Vz/f) were calculated by dose/(AUC0–∞*λz) after IV and oral administration, respectively. […]

[4] = set-up: method as in PMID 23553846; settings: xenograft mice; cited from earlier work
[5] = set-up: method as in printed; settings: preclinical results, bile-canaliculated rats, [14C]-tepotinib; ref not given; cited from earlier work
[6] = tepotinib in plasma, median, single oral 498 mg capsules

CN1CCC(COc2cnc(-c3cccc(Cn4nc(-c5cccc(C#N)c5)ccc4=O)c3)nc2)CC1 [Tepotinib]
fraction unbound at 18 h ([1]; pH 7.4, ex vivo, 4–24 h after oral administration, read-out: highest free fraction observed in individual participants): 0.0325
fraction unbound at 18 h ([1]; pH 7.4, ex vivo, 4–24 h after oral administration, read-out: lowest free fraction observed in individual participants): 0.0165
fraction unbound at 18 h ([1]; pH 7.4, unbound fraction of tepotinib in plasma, median values, ex vivo, range of medians at 4, 8, 12 and 24 h after oral administration): 0.018 to 0.024
number of TEAEs of grade one severity ([2]; NCI-CTCAE, of 19 TEAEs): 17
deaths, serious or other significant adverse events ([2]; both parts): neither deaths, serious adverse events, nor other significant adverse events were reported
volunteers who experienced TEAEs ([2]; both parts, single 500 mg dose): 75%
healthy volunteers who experienced TEAEs ([2]; both parts, single oral 500 mg): Nine of 12
number of TEAEs ([2]; in nine of 12 volunteers): 19
number of TEAEs judged treatment related ([2]; of 19 TEAEs): Eight
tolerability ([2]; single oral dose of 500 mg, healthy volunteers): well tolerated
t½ ([3]; tepotinib in plasma, geometric mean (geometric CV%), single oral 498 mg capsules): 33 h
tlag [3, 6]: 2 h
tmax [3, 6]: 9 h
tlag ([3]; total radioactivity in plasma, median, oral part A): 2.5 h
tumor versus plasma concentration [4]: higher concentrations in xenograft tumors than in the plasma of mice
biliary excretion of radioactivity [5]: a predominant fraction of radioactivity is excreted unchanged via the bile
